Data on 1 compound can be found in patent publication US20240228490A1, “HETEROCYCLIC DERIVATIVE INHIBITOR AND PREPARATION METHOD THEREFOR AND APPLICATION THEREOF” (Shanghai Hansoh Biomedical Co., Ltd., priority 2021, published 2024).

In one data set the target is PARP1 enzyme (Homo sapiens (Human), UniProt P09874). The data set is described as follows: Inhibitory activity on PARP1 enzyme (chemiluminescence). The format is biochemical.
In data set [1] the test system is BRCA2 Knockout DLD-1 cells. Briefly: Inhibition of proliferation of BRCA2 Knockout DLD-1 cells (CellTiter-Glo). The format is cell-based. The following applies: Homo sapiens, about 144 hours incubation. The protocol:
BRCA2 Knockout DLD-1 cells were cultured using RPMI1640 culture medium containing 10% FBS to an appropriate cell density. The cells were collected, and adjusted to an appropriate cell concentration using the complete culture medium. The cell suspension was spread on a 96-well plate (90 μL per well), and placed in a 37° C., 5% CO2 incubator overnight. Compound solutions of different concentrations were formulated using DMSO and culture medium, and vehicle control was set up. The compound solutions were added to the 96-well plate (10 μL per well), and the plate was incubated in a 37° C., 5% CO2 incubator for about 144 hours. CellTiter-Glo solution was added, and the plate was shaken to mix evenly, and incubated in the dark for 10 to 30 minutes. The values were measured with a Synergy H1 or Envision microplate reader.
The inhibition rate was calculated using the luminescence signal value. The concentration and inhibition rate were fitted to a nonlinear regression curve using Graphpad Prism software to obtain the IC50 value.
(ATP-based viability assays read luminescence as a measure of living cells.)

The next data set deals with PAR in tumor tissue. Briefly: PD part of PK/PD study in MDA-MB-436 subcutaneous xenograft model: inhibition of PAR in tumor tissue (Western blot). In kind it is in vivo, BALB/c nude mice. The following applies: within 24 hours after a single administration, MDA-MB-436 model. As to the method: • a. Grouping: According to the growth of the tumor, when the tumor grew to a volume of 300-500 mm^3, tumor-bearing mice were selected according to the experimental design and randomly grouped (3 mice per each time point) to start the PK/PD test. • b. Fasting: All tumor-bearing mice were fasted (with free access to water) overnight (fasting >8 hours) before the administration. • c. Administration: Except for the blank control group, a single oral administration was carried out according to the time of the experimental design, and the administration volume was 10 mL/kg. • d. Sample collection: The mice were euthanized by CO2 asphyxiation according to the time of the experimental design, and the samples were collected. One plasma sample and three tumor tissue samples were collected from each animal.
Tumor tissue collection: After the blood collection, the tumor tissue was collected. The collected tumor tissue was divided into 3 aliquots (˜0.1 g each), placed into labeled 2 mL centrifuge tubes, and stored in a refrigerator at −80±10° C. for PK or PD test.
1 mL of tumor lysis solution was added to each tube of tumor tissue sample, followed by the addition of steel beads. […]
Protein quantification was performed by BCA protein quantification kit. […]
c. […] PAR was subjected to fluorescence imaging, and Gapdh internal control was subjected to fluorescence imaging using IRDye 800 CW channel.
(In western blotting, separated proteins are transferred to a membrane and probed.)

A short description of data set [2]: Pharmacokinetic assay in Balb/C mice. The following applies: male, mouse, plasma, po, 1 mg/kg.
Description: Balb/C mice were used as test animals.
Male Balb/C mice (6 mice per example), purchased from Shanghai Jiesijie Laboratory Animal Co., LTD, with Certificate No.: SCXK (Shanghai) 2013-0006 N0.311620400001794.
5 g of hydroxyethyl cellulose (HEC, CMC-Na, viscosity: 800-1200 Cps) was weighed and dissolved in 1000 mL of purified water, followed by the addition of 10 g of Tween 80. The mixture was mixed well to obtain a clear solution.
2.05 mg of the compound was weighed and dissolved in the solution. The mixture was shaken well, crushed in a cell crusher for 1 minute, and sonicated for 15 minutes to obtain a suspension with a concentration of 0.1 mg/mL.
After an overnight fast, male Balb/C mice were administered p.o. with the test compound at a dose of 1 mg/kg and a volume of 10 mL/kg.
0.04 mL of blood was taken from the orbit of the mouse at 0, 0.5, 1, 2, 4, 6, 8 and 24 hours after the administration. The samples were stored in EDTA-K2 tubes, and centrifuged for 6 minutes at 4° C., 6000 rpm to separate the plasma. The plasma samples were stored at −80° C. The mouse was fed 4 hours after the administration.
• Liquid chromatography condition: Shimadzu LC-20AD pump • Mass spectrometry condition: AB Sciex API 4000 mass spectrometer • Chromatographic column: phenomenex Gemiu 5 μm C18 50×4.6 mm • Mobile phase: Eluent A was 0.1% formic acid in water, and Eluent B was acetonitrile • Flow rate: 0.8 mL/min • Elution time: 0-4.0 minutes, the eluent is as follows:
The main parameters of pharmacokinetics were calculated by WinNonlin 8.2.
The nature of data set [3]: Bidirectional permeability through Caco-2 cell model. To be noted: human. For orientation: Caco-2 cells form a polarised layer with tight junctions and transporters.
Description: 100 μL of transport buffer (HBSS containing 10 μM test compound, 0.5% BSA, and 0.5% DMSO) was added to the administration end of A to B • b. 300 μL of transport buffer (HBSS containing 0.5% BSA) was added to the receiving end of A to B • c. 300 μL of transport buffer (HBSS containing 10 μM test compound, 0.5% BSA, and 0.5% DMSO) was added to the administration end of B to A • d. 100 μL of transport buffer (HBSS containing 0.5% BSA) was added to the receiving end of B to A • e. Incubation for 2 hours • d. Samples were taken, processed and detected by mass spectrometry.
• Instrument: liquid chromatography; • Chromatographic column: Waters XSelect HSS T3 C18 (2.1*50 mm, 2.5 μm); • Mobile phase: phase A: water containing 0.1% formic acid; phase B: acetonitrile containing 0.1% formic acid.
• Instrument: API4000 liquid chromatography-mass spectrometer; • Ion source: electrospray ionization source (ESI); • Detection method: positive ion detection; • Scan mode: multiple reaction monitoring (MRM) mode.
For data set [4], the system named is human colorectal cancer cell line DLD-1 BRCA2−/− subcutaneous xenograft tumor. The data set is described as follows: In vivo pharmacodynamic study in DLD-1 BRCA2−/− subcutaneous xenograft tumor model. The following applies: oral, once/day, 21 days.
Description: BALB/c nude mice, 6 to 8 weeks old, 9, purchased from the Experimental Animal Management Department of Shanghai Institute of Family Planning
The recovered cells were plated in a cell culture flask (the cell type, date, name of the experimenter and the like were labeled on the wall of the flask), and cultured in a CO2 incubator (the temperature was 37° C. and the CO2 concentration was 5% in the incubator). • b. Cells were passaged once every three days. After passage, the cells continued to be cultured in the CO2 incubator. This process was repeated until the number of cells was sufficient for the in vivo efficacy test. • c. The cultured cells were collected, and counted with an automatic cell counter. According to the counting results, the cells were resuspended with PBS to obtain a cell suspension (density: 5×10^7/mL), which was placed in an ice box for later use.
The nude mice were labeled with disposable universal ear tags for rats and mice before inoculation. • b. During the inoculation, the cell suspension was mixed well. 0.1 to 1 mL of the cell suspension was drawn with a 1 mL syringe, air bubbles were removed, and then the syringe was placed on an ice pack for later use. • c. The nude mouse was bound with the left hand. The position on the right side of the back close to the right shoulder of the nude mouse (inoculation site) was disinfected with 75% alcohol. Inoculation started after 30 seconds. • d. The test nude mice were successively inoculated (each mouse was inoculated with 0.1 mL of cell suspension).
According to the tumor growth, the tumor was measured on 10 to 18 days after the inoculation, and the tumor size was calculated.
Calculation of tumor volume: tumor volume (mm^3)=length (mm)×width (mm)×width (mm)/2 • b. The tumor-bearing mice were grouped according to their body weight and tumor size by random grouping. • c. […] Tumors were measured and the mice were weighed twice a week after the administration of test compounds began. • e. Animals were euthanized at the end of the experiment. • f. Data were processed by using softwares such as Excel.

PARP1 enzyme, sequence (P09874 whole entry): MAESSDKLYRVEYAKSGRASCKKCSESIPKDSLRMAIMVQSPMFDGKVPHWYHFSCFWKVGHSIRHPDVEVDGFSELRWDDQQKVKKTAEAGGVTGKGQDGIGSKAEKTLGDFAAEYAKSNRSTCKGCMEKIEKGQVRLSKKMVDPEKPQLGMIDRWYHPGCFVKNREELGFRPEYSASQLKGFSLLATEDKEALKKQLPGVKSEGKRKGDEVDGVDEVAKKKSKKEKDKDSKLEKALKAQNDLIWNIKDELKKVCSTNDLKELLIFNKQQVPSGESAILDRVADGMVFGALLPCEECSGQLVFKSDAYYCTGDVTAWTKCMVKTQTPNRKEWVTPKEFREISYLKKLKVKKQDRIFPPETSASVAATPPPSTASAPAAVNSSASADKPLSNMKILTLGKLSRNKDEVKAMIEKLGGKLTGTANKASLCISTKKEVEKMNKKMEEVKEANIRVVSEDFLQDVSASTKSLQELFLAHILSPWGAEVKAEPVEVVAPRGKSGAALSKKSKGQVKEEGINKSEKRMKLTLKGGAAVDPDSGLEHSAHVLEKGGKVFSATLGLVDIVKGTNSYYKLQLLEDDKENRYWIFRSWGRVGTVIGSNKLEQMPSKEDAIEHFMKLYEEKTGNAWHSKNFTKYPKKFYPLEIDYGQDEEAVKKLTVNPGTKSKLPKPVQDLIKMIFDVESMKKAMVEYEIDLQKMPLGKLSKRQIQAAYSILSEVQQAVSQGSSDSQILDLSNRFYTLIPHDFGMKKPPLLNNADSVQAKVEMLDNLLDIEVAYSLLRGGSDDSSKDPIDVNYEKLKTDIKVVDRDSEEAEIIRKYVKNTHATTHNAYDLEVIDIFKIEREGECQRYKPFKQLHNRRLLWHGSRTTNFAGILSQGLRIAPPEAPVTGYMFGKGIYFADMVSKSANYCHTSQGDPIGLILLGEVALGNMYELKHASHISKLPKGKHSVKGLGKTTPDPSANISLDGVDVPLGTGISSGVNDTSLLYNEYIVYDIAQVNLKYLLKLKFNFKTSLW

Usually IC50 stands for the point on the concentration scale where inhibition reaches its midpoint. The term AUC(0-t) denotes the area under the concentration-time curve up to a stated or last time point. A lower AUC(0-t) goes with low exposure. A word on the Cmax: it is the maximum level reached in the sampled fluid or tissue. One may read the Tmax as the time at which the peak concentration occurs. Broadly, the half-life is how long it takes for the measured level to halve. A lower half-life goes with rapid decline. Usually Papp A→B stands for how fast a substance crosses the layer from the apical side. One may read the Papp B→A as how fast a substance crosses the layer from the basolateral side. With `CCc1cc2ncc(CN3CC=C(c4ccc(C(=O)NC)nc4)CC3)cc2[nH]c1=O` [Example 1, 1′-((7-Ethyl-6-oxo-5,6-dihydro-1,5-naphthyridin-3-yl)methyl)-N-methyl-1′,2′,3′,6′-tetrahydro-[3,4′-bipyridine]-6-carboxamide], the IC50 at PARP1 enzyme is 0.93 nM. Moreover, in data set [1], the IC50 turned out to be 1.2 nM. Further, the “Inhibition of intratumoral PAR compared with AZD5305” value in the data set with PAR in tumor tissue is reported as “comparable”. In data set [2], the AUC(0-t) came out at 119 µg·h/mL, the highest level (Cmax) was 9930 ng/mL, the Tmax stood at 1 h and the half-life was 6.9 h. In data set [3], this compound came in with a Papp A→B at 2 h, 10 μM of 12.8 ×10⁻⁶ cm/s and an apparent permeability from basolateral to apical (Papp B→A) at 2 h, 10 μM of 19.2 ×10⁻⁶ cm/s. Moreover, in data set [4], the “Animal's body weight” value is on record as “no significant decrease” and the “Tumor growth inhibition rate TGI (%)” value was more than 90%.
